The values that follow come from patent publication US20100075852A1, “HERBICIDE COMBINATION COMPRISING DIMETHOXYTRIAZINYL-SUBSTITUTED DIFLUOROMETHANESULFONYLANILIDES” (BAYER CROPSCIENCE AG, priority 2008, published 2010).

What all share (assay): Post-emergence action against weeds, greenhouse pot test, visual scoring
Common to all, as to assay type: in vivo

In test [1] the test system is Fallopia (ex Polygonum) convolvulus (POLCO). To be noted: Fallopia convolvulus, post-emergence, 504 h, read-out: % activity found. As to the method:
(§1) Seeds or rhizome pieces of mono- and dicotyledonous harmful and useful plants were placed in peat pots (diameter 4 cm) filled with sandy loam and then covered with soil. The pots were kept in a greenhouse under optimum conditions. In addition, harmful plants encountered in paddy rice cultivation were cultivated in pots with a water level 2 cm above the soil surface.
(§2) About three weeks after the start of the cultivation, the test plants were treated at the 2- to 3-leaf stage. The herbicides, formulated as powder or liquid concentrates, were, either alone or in the combinations according to the invention, sprayed in various dosages on to the green parts of the plants using an application rate of 600 l of water/ha (converted). For further cultivation of the plants, the pots were then again kept under optimum conditions in a greenhouse.
(§3) The visual scoring of the herbicidal effects was carried out in intervals up to 21 days after the treatment. Scoring was carried out in percent in comparison to the untreated control plants. 0%=no herbicidal activity, 100%=complete herbicidal activity=complete kill.
(§4) The percentages from the treatments with the herbicides alone (=individual application) and with the combinations according to the invention (=mixtures) were employed to calculate interactions using the method of Colby.
(§5) • A, B=activity of components A and B in percent at a dosage of a and b g of ai/ha (=gramm of active substance per hectare), respectively. • E=expected value in % at a dosage of a+b g of ai/ha.

Test [2] concerns Matricaria inodora (MATIN). The following applies: Tripleurospermum inodorum, post-emergence, 504 h, read-out: % activity found. Here is the method: as §1, §2, §3, §4, §5
The test system of another test is Zea mays (ZEAMX). The following applies: Zea mays, post-emergence, read-out: % activity found. Here is the method: as §1, §2, §3, §4, §5
Another test relates to Avena fatua (AVEFA). To be noted: Avena fatua, post-emergence, read-out: % activity found. Here is the method:
as §1, §2, §3, §4, §5

In test [3] the test system is Lolium multiflorum (LOLMU). To be noted: Lolium multiflorum, post-emergence, read-out: % activity found. Here is the method: as §1, §2, §3, §4, §5
Another test relates to Setaria viridis (SETVI). To be noted: 504 h, read-out: % activity found. Here is the method:
as §1, §2, §3
(§6) The percentages from the treatments with the herbicides alone (=individual application) and with the combinations according to the invention (=mixtures) were employed to calculate interactions using the method of Colby. When the observed efficacies of the mixtures exceed the formal sum of the values of the tests with individual applications, they also exceed the expected value according to Colby, which is calculated using the formula below (cf. S. R. Colby; in Weeds 15 (1967) pp. 20 to 22):
as §5

In another test the test system is Oryza sativa (ORYSA). The following applies: read-out: % activity found; for inhibition at 7 g/ha: ORYSA, 7 g of ai/ha alone. Here is the method:
as §1, §2, §3, §6, §5

Test [4] has as its system Alopecurus myosuroides (ALOMY). The following applies: read-out: % activity found. As to the method:
as §1, §2, §3, §6, §5

Test [5] deals with Cyperus esculentus (CYPES). The following applies: Cyperus esculentus, post-emergence, 504 h; CYPES; 21 DAT; 7 g of ai/ha alone; read-out: % activity found. Here is the method:
as §1, §2, §3, §4, §5

A further test concerns Viola tricolor (VIOTR). The following applies: Viola tricolor, post-emergence, 504 h, 21 DAT, read-out: % activity found. As to the method:
as §1, §2, §3, §4, §5

The structures appear in SMILES notation. Like-named read-outs stand apart in the source and are kept apart here.

For the molecule `Cc1nn(C)c(O)c1C(=O)c1ccc(C(F)(F)F)cc1S(C)(=O)=O` [B1-6, (5-hydroxy-1,3-dimethyl-1H-pyrazol-4-yl)[2-(methylsulfonyl)-4-(trifluoromethyl)phenyl]methanone], the inhibition at 8 g/ha in test [1] amounted to 50%; in [2], 20%; in the test with Avena fatua (AVEFA) (240 h), 0%; in the test with Avena fatua (AVEFA) (504 h) it was 0%; in [3] (240 h), 0%; in test [3] (504 h), 0%. The inhibition at 8 g/ha was found to be 0% in the test on Setaria viridis (SETVI); 50% in the test on Oryza sativa (ORYSA) (240 h); 40% with Oryza sativa (ORYSA) (504 h); 0% in test [4] (240 h); 0% in test [4] (504 h). The inhibition at 24 g/ha in test [1] was found to be 60%; in test [2] it was 30%; in the test on Zea mays (ZEAMX) (240 h), 0%; in the test with Zea mays (ZEAMX) (504 h), 0%; in [3] (240 h) it was 0%; in the test with Setaria viridis (SETVI), 0%. Moreover, the inhibition at 24 g/ha was 70% in the test on Oryza sativa (ORYSA) (504 h), 0% in test [4] (240 h) and 0% in [4] (504 h).

As to `COCc1cnc(C2=NC(C)(C(C)C)C(=O)N2)c(C(=O)O)c1` (racemic) [B4-2, (±)-2-[4,5-dihydro-4-methyl-4-(1-methylethyl)-5-oxo-1H-imidazol-2-yl]-5-(methoxymethyl)-3-pyridinecarboxylic acid], the inhibition at 7 g/ha was 0% in test [5]; 10% in the test with Zea mays (ZEAMX) (504 h, ZEAMX, 21 DAT, 7 g of ai/ha alone); 20% with Viola tricolor (VIOTR) (7 g of ai/ha alone); 80% in [3] (504 h, LOLMU, 21 DAT, 7 g of ai/ha alone); 70% with Oryza sativa (ORYSA) (240 h, 10 DAT); 70% in the test on Oryza sativa (ORYSA) (504 h, 21 DAT). The inhibition at 21 g/ha in the test with Zea mays (ZEAMX) (504 h, ZEAMX, 21 DAT, 21 g of ai/ha alone) turned out to be 60%; with Avena fatua (AVEFA) (504 h, AVEFA, 21 DAT, 21 g of ai/ha alone) it was 70%; with Viola tricolor (VIOTR) (21 g of ai/ha alone) it was 40%.
